The values below come from US20260200903A1, “PHARMACEUTICAL COMPOSITION FOR AMELIORATING MALIGNANT DISEASES” (KINKI UNIVERSITY, priority 2020, published 2026).

Molecules are shown by their SMILES.

In test [1] the test system is CD20. In words: CD20 expression in L363 cells, flow cytometry. Format: cell-based. As to conditions: 10 days, concentration lower than the IC50 (0.005-50 μM), compared to the positive control. The procedure: As a control, compounds untreated L363 cells were seeded in 75 cm^2 flasks and incubated for 10 days at 37° C. and 5% CO2. L363 cells were seeded into 75 cm^2 flasks and pre-cultured for 4 h. After incubation, L363 cells were treated with 0.1 μM M7, 0.05 μM M9, 0.1 μM yk-7, 0.1 μM yk-8-3, 50 μM yk-8-1, 0.1 μM M11, 0.01 μM M12, 0.005 μM M14, 0.005 μM M15, 0.005 μM M16, 1 μM M18, and 1 μM M19 at final concentrations, and incubated for 10 days at 37° C. and 5% CO2. This added amount is a concentration lower than the IC50 of the above compounds for L363 cells. After 10 days of incubation, cells were stained with anti-CD20 antibody, a B cell marker, and CD20 expression was measured using BD LSRFortessa. CCRF-SB cells were used as CD20-positive controls.
Results are shown in FIG. 29, FIG. 30, FIG. 31, and FIG. 32. The horizontal axis represents the expression level of CD20 and the vertical axis represents the number of cells.
On the technique in general: In flow cytometry, cells or beads pass a laser one at a time.

Test [2] has as its system immunoglobulin free λ light chain. In words: Immunoglobulin free λ light chain secretion in KMS-28BM cells, ELISA. It is filed as cell-based, human. The settings on record: KMS-28BM culture supernatant after 10 days, control 48 μg/L. The procedure:
The inhibitory effect of each compound on immunoglobulin free λ light chain secretion was examined by enzyme-linked immunosorbent assay (ELISA) using KMS-28BM cells.
As a control, compounds untreated KMS-28BM cells were seeded in 75 cm^2 flasks and incubated for 10 days at 37° C. and 5% CO2. KMS-28BM cells were seeded into 75 cm^2 flasks and pre-cultured for 4 h. After incubation, KMS-28BM cells were treated with […], 0.05 μM M9, 0.1 μM yk-7, 0.1 μM yk-8-3, 50 μM yk-8-1, 0.5 μM M11, […], 0.005 μM M14, 0.005 μM M15, 0.005 μM M16, 0.5 μM M18, and 0.5 μM M19 at final concentrations, and incubated for 10 days at 37° C. and 5% CO2. After 10 days of incubation, the culture supernatant was collected and immunoglobulin free λ light chain secretion was measured by ELISA. This measurement was performed using a human anti-λchain antibody ELISA kit (Funakoshi).
(In general: ELISA stands for enzyme-linked immunosorbent assay.)

For test [3] the test system is unchanged. In words: Immunoglobulin free λ light chain secretion in L363 cells, ELISA. It is filed as cell-based, human. As to conditions: L363 culture supernatant after 10 days, control 145 μg/L. The procedure: The inhibitory effect of each compound on immunoglobulin free λ light chain secretion was examined by enzyme-linked immunosorbent assay (ELISA) using L363 cells.
As a control, compounds untreated L363 cells were seeded in 75 cm^2 flasks and incubated for 10 days at 37° C. and 5% CO2. L363 cells were seeded into 75 cm^2 flasks and pre-cultured for 4 h. After incubation, L363 cells were treated with 0.1 μM M7, 0.05 μM M9, 0.1 μM yk-7, 0.1 μM yk-8-3, 50 μM yk-8-1, 0.1 μM M11, 0.01 μM M12, 0.005 μM M14, 0.005 μM M15, 0.005 μM M16, 1 μM M18, and 1 μM M19 at final concentrations, and incubated for 10 days at 37° C. and 5% CO2. After 10 days of incubation, the culture supernatant was collected and immunoglobulin free λ light chain secretion was measured by ELISA. This measurement was performed using a human anti-λ chain antibody ELISA kit (Funakoshi).

Test [4] has as its system MEC-1 cells (chronic lymphocytic leukemia cell line). In words: Cell death inducing effect on MEC-1 cells, trypan blue staining. Format: cell-based. The settings on record: MEC-1 (CLL), cell viability. The procedure: MEC-1 cells (chronic lymphocytic leukemia cell line) were cultured under 5% CO2 at 37° C. The culture medium used RPMI-1640 medium with 100 μg/mL penicillin, 100 U/mL streptomycin and fetal bovine serum. MEC-1 cells were seeded into 96-well plates and incubated with each concentration of the compounds was added, and cell viability was determined by the trypan blue staining.
(§1) For controls, only 0.5% DMSO (diluted in PBS) used to dissolve the compounds was added. For each concentration, the codes “5, 6, 7, 8, 9, 10, 11, 12” and arrows are shown from left to right. The sign “5” is the M9 (formula (5)) administration group, the sign “6” is the M11 (formula (6)) administration group, the sign “7” is the M12 (formula (7)) administration group, the sign “8” is the M14 (formula (8)) administration group, the sign “9” is the M15 (formula (9)) administration group, the sign “10” is the M16 (formula (10)) administration group, the sign “11” is the M18 (formula (11)) administration group, the sign “12” is the M19 (formula (12)) administration group, respectively. The IC50 values for each compound is also listed in the upper right corner of the figure.

The test system of test [5] is HUT-78 cells (peripheral T lymphoma cell line). In words: Cell death inducing effect on HUT-78 cells, trypan blue staining. It is filed as cell-based. The settings on record: HUT-78 (peripheral T-cell lymphoma), cell viability. On the procedure:
HUT-78 cells (peripheral T lymphoma cell line) were cultured under 5% CO2 at 37° C.
The culture medium used RPMI-1640 medium with 100 μg/mL penicillin, 100 U/mL streptomycin and fetal bovine serum. HUT-78 cells were seeded into 96-well plates and incubated with each concentration of the compounds was added, and cell viability was determined by the trypan blue staining.
as §1

For test [6], the system named is ATN-1 cells (adult T cell leukemia cell line). In words: Cell death inducing effect on ATN-1 cells, trypan blue staining. The settings on record: ATN-1 (ATL), cell viability. It is filed as cell-based. On the procedure: ATN-1 cells (adult T cell leukemia cell line) were cultured under 5% CO2 at 37° C. The culture medium used RPMI-1640 medium with 100 μg/mL penicillin, 100 U/mL streptomycin and fetal bovine serum. ATN-1 cells were seeded into 96-well plates and incubated with each concentration of the compounds was added, and cell viability was determined by the trypan blue staining.
as §1

In the case of `CCC(=O)OC[C@H]1O[C@@H](c2c(OC(=O)CC)cc3oc4cc(OC(=O)CC)c(OC(=O)CC)cc4c(=O)c3c2OC(=O)CC)[C@H](OC(=O)CC)[C@@H](OC(=O)CC)[C@@H]1OC(=O)CC` [Compound M7, 1,3,2′,3′,4′,6,6′,7-octa-O-propionylmangiferin], the CD20 expression level entry in test [1] was “significantly increased”. The λ chain secretion in test [2] (M7 group, unit printed g/L) was found to be 2.1e+06 µg/L; in test [3] (M7 group, unit printed g/L), 2.3e+07 µg/L.

A word on the IC50: it is the concentration needed to halve the response being measured. A low value points to higher potency. `CCC(=O)OC[C@H]1O[C@@H](c2c(O)cc3oc4cc(O)c(O)cc4c(=O)c3c2O)[C@H](OC(=O)CC)[C@@H](OC(=O)CC)[C@@H]1OC(=O)CC` [Compound M9, 2′,3′,4′,6′-tetra-O-propionylmangiferin]: the IC50 in test [4] (Homo sapiens, MEC1) is 454 nM; in test [5] (Homo sapiens, HuT78), 925 nM; in test [6] (Homo sapiens), 589 nM. Moreover, the CD20 expression level entry in test [1] is reported as “significantly increased”.

Regarding `CCCC(=O)OC[C@H]1O[C@@H](c2c(OC(=O)CCC)cc3oc4cc(OC(=O)CCC)c(OC(=O)CCC)cc4c(=O)c3c2OC(=O)CCC)[C@H](OC(=O)CCC)[C@@H](OC(=O)CCC)[C@@H]1OC(=O)CCC` [Compound M11, 1,3,2′,3′,4′,6,6′,7-octa-O-butyrylmangiferin], the IC50 amounted to 575 nM in test [4], 905 nM in test [5] and 1850 nM in test [6]. Further, the CD20 expression level entry in test [1] is reported as “significantly increased”. The λ chain secretion stood at 1.1 µg/L in test [2] (compounds at 0.005-50 μM) and 11 µg/L in test [3] (compounds at 0.005-50 μM).

For the compound `CCCC(=O)OC[C@H]1O[C@@H](c2c(O)cc3oc4cc(O)c(O)cc4c(=O)c3c2OC(=O)CCC)[C@H](OC(=O)CCC)[C@@H](OC(=O)CCC)[C@@H]1OC(=O)CCC` [Compound M12, 1,2′,3′,4′,6-penta-O-butyrylmangiferin], the half-maximal inhibitory concentration (IC50) in test [4] (Homo sapiens, MEC1) was 12 nM; in test [5] (Homo sapiens, HuT78), 21 nM; in test [6] (Homo sapiens) it was 15 nM. Besides, the CD20 expression level result in test [1] is recorded as “significantly increased”.

As for `CCCC(=O)OC[C@H]1O[C@@H](c2c(O)cc3oc4cc(O)c(O)cc4c(=O)c3c2O)[C@H](OC(=O)CCC)[C@@H](OC(=O)CCC)[C@@H]1OC(=O)CCC` [Compound M14, 2′,3′,4′,6′-tetra-O-butyrylmangiferin], the IC50 in test [4] (Homo sapiens, MEC1) is 8 nM; in test [5] (Homo sapiens, HuT78), 8 nM; in test [6] (Homo sapiens), 8 nM. Also, in test [1], the CD20 expression level entry is reported as “significantly increased”.

In the case of `CC(C)(C)C(=O)OC[C@H]1O[C@@H](c2c(O)cc3oc4cc(O)c(O)cc4c(=O)c3c2O)[C@H](OC(=O)C(C)(C)C)[C@@H](OC(=O)C(C)(C)C)[C@@H]1OC(=O)C(C)(C)C` [Compound M15, 2′,3′,4′,6′-tetra-O-pivaloylmangiferin], the IC50 was 9 nM in test [4] (Homo sapiens, MEC1); 22 nM in test [5] (Homo sapiens, HuT78); 11 nM in test [6] (Homo sapiens). In test [1], the CD20 expression level result was “significantly increased”.

Consider `CCCCO[C@@H]1[C@@H](OCCCC)[C@H](c2c(O)cc3oc4cc(O)c(O)cc4c(=O)c3c2O)O[C@H](COC(=O)CCC)[C@H]1OC(=O)CCC` [Compound M16, 2′,3′-di-O-butyl-4′,6′-di-O-butyrylmangiferin], for which the IC50 was 7 nM in test [4] (Homo sapiens, MEC1); 9 nM in test [5] (Homo sapiens, HuT78); 7 nM in test [6] (Homo sapiens). In test [1], the CD20 expression level result is listed as “significantly increased”.

As for `O=c1c2cc(O)c(O)cc2oc2cc(O)cc(OCCO)c12` [Compound M18, 3,6,7-trihydroxy-1-(2-hydroxyethoxy)-9H-xanthen-9-one], the IC50 in test [4] (Homo sapiens, MEC1) was 3120 nM; in test [5] (Homo sapiens, HuT78) it was 4540 nM; in test [6] (Homo sapiens), 2890 nM. The CD20 expression level result in test [1] was “significantly increased”.

Turning to `C=CCOc1cc(O)cc2oc3cc(O)c(O)cc3c(=O)c12` [Compound M19, 1-allyloxy-3,6,7-trihydroxy-9H-xanthen-9-one], the IC50 in test [4] (Homo sapiens, MEC1) worked out at 6890 nM; in test [5] (Homo sapiens, HuT78), 6740 nM; in test [6] (Homo sapiens) it was 4520 nM. Moreover, the CD20 expression level result in test [1] was “significantly increased”.

As for `CCCCC(=O)OC[C@H]1O[C@@H](c2c(O)cc3oc4cc(O)c(O)cc4c(=O)c3c2O)[C@H](OC(=O)CCCC)[C@@H](OC(=O)CCCC)[C@@H]1OC(=O)CCCC` [yk-7, 2′,3′,4′,6′-tetra-O-valerylmangiferin], the CD20 expression level result in test [1] is “significantly increased”.

With `CCCCC(=O)OC[C@H]1O[C@@H](c2c(OC(=O)CCCC)cc3oc4cc(OC(=O)CCCC)c(OC(=O)CCCC)cc4c(=O)c3c2OC(=O)CCCC)[C@H](OC(=O)CCCC)[C@@H](OC(=O)CCCC)[C@@H]1OC(=O)CCCC` [yk-8-1, 1,3,2′,3′,4′,6,6′,7-octa-O-valerylmangiferin], in test [1], the CD20 expression level result is listed as “significantly increased”. The λ chain secretion in test [2] (compounds at 0.005-50 μM) turned out to be 35 µg/L; in test [3] (compounds at 0.005-50 μM), 119 µg/L.

Take `CCCCC(=O)OC[C@H]1O[C@@H](c2c(O)cc3oc4cc(O)c(O)cc4c(=O)c3c2OC(=O)CCCC)[C@H](OC(=O)CCCC)[C@@H](OC(=O)CCCC)[C@@H]1OC(=O)CCCC` [yk-8-3, 1,2′,3′,4′,6-penta-O-valerylmangiferin]: in test [1], the CD20 expression level entry was “significantly increased”.
